Experimental data reported in publication PMC8662641, “Site-Specific Labeling of Endogenous Proteins Using CoLDR Chemistry” (Journal of the American Chemical Society, 2021).

Tests used:
BTK kinase domain = BTK kinase domain (Homo sapiens, UniProt Q06187); assay: Labeling of recombinant BTK by intact protein LC/MS; type: binding; design: BTK kinase domain was expressed and purified as previously reported; made in house; details: BTK 10.7 µM, 20 µM compound, 1 hour
BTK = BTK (Homo sapiens, UniProt Q06187); assay: BTK activity in Mino cells (autophosphorylation); type: cell-based; design: We incubated Mino B cells with probes containing different tags; endogenous in cells; host or cells: Mino cells; details: Mino cells, 1 h; 100 nM probes, 1 μM ibrutinib or Ibr-H
Chain of BTK (Q06187 whole entry): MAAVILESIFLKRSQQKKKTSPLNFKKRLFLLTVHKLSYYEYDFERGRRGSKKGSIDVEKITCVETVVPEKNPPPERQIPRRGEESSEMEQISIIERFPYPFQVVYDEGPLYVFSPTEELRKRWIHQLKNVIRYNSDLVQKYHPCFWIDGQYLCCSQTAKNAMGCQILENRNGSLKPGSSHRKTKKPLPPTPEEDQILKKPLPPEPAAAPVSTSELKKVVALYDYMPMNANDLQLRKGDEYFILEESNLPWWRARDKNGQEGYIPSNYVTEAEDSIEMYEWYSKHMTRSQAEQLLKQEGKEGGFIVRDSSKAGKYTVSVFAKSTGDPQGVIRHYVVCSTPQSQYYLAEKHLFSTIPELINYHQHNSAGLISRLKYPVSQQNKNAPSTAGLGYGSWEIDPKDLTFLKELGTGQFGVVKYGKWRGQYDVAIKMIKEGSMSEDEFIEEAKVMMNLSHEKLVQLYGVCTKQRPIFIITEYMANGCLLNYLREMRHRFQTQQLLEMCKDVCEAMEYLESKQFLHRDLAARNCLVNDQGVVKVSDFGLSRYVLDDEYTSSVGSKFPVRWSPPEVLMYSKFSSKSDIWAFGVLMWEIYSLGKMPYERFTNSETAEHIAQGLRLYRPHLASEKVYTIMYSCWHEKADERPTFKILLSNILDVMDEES
Experimental: The cells were harvested, and immunoblots of phospho-BTK, total-BTK, and β-actin were performed.
Cell pellets were washed with ice-cold PBS and lysed using RIPA buffer (Sigma, R0278). […] Samples containing 50 μg of total protein were prepared with 4× LDS sample buffer (NuPAGE, Thermo Fischer Scientific, NP0007) and were then resolved on a 4–20% Bis-Tris gel (GeneScript SurePAGE, M00657). […] The EZ-ECL kit (Biological Industries, 20-500-1000) was used to detect HRP activity.

Chain of BTK kinase domain (Q06187 402-655 limits assumed): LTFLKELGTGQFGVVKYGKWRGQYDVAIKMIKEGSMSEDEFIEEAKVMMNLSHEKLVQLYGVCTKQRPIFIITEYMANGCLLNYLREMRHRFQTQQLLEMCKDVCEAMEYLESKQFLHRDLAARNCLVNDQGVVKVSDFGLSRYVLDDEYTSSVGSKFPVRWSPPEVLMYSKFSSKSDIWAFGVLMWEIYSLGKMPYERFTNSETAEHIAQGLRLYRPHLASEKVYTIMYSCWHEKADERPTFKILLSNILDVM

C#CCCNC(=O)C(=C)CN1CCC[C@@H](n2nc(-c3ccc(Oc4ccccc4)cc3)c3c(N)ncnc32)C1 [1b]
labeling of BTK (SPR sample preparation) (BTK kinase domain): 100% | BTK autophosphorylation after anti-IgM (BTK): BTK remained active after labeling
